The target of data set [1] is T1, melanocortin-1 receptor (Mus musculus, UniProt Q01727).
T1 construct: endogenous in cells; host or cells: B16/F1 cells
The settings on record: comparison value for the optimal peptide construct for Cu-64; cited from earlier work.

The nature of data set [2]: Biodistribution in B16/F1 flank tumor bearing C57 mice. In kind it is in vivo. As to conditions: both sexes, C57, mouse, tumor (B16/F1 flank tumor), iv, 0.27 mCi, total radioactivity; 40 min post injection; tail vein. As to the method: (§1) Pilot Animal Studies using ^62Cu labeled Peptide: Biodistribution and PET studies of radiolabeled ^62Cu-NOTA-2-GGG-Arg11 were performed in B16/F1 flank tumor bearing C57 mice utilizing the newly designed nanogenerator with the 5 μg lyophilized peptide kits. Fourteen male and female, 6-8 week old mice were injected with B16/F1 cells (1,000,000/mouse) in the flanks or shoulders while anesthetized to induce solid tumors. B16/F1 solid tumors appeared in 14 days post inoculation. Radiolabeled peptides were injected through the tail vein at an average of 0.27 mCi per dose administration for biodistribution studies and an average of 0.7 mCi for imaging, achieving specific activities of 111.2-140.4 Ci/μmol (mean=122.1 Ci/μmol), and an average of 94.0% radiolabeling yield without a purification step after synthesis. Animals in the biodistribution studies were sacrificed by cervical dislocation followed by pneumothorax at 10, 20, and 40 min post administration, major organs removed, weighed, and radioactivity quantitated in a windowed gamma counter.
(§2) Uptake was measured for the tumor, blood, heart, lung, liver, small intestine, intestine, kidneys, muscle, carcass and paper, and skin. Tumor uptake was rapid, reaching 4.65±0.48 ID/g and 9.43±2.69% ID/g at 20 and 40 min post injection, respectively.

Data set [3] concerns B16/F1 flank tumor. The description is as above. In kind it is in vivo. The settings on record: for Tumor uptake: tail vein. As to the method: as §1, §2
Data set [4] deals with melanoma cells. Kind of data set: In vitro cell binding of radiolabeled peptide. It is filed as cell-based. As to conditions: 1 million cells per well, 320,000 cpm; maximum at 10 min, constant for 50 min. The procedure: Tissue culture wells containing 1 million cells each were incubated with 320,000 cpm of ^62Cu-NOTA-2-GGG-Arg11 for various times between 5 min and 50 min then washed and counted. […] In vitro cell binding of 10% for the ^62Cu-NOTA-2-GGG-Arg11 peptide is similar to then in vitro cell uptake percentages for HPLC purified.

Data set [5] has as its system B16/F1 flank tumor. Kind of data set: PET imaging study in tumor bearing mice (microPET-Focus). It is filed as in vivo. The settings on record: static imaging for 20 min starting 10 min post administration. As to the method:
as §1, with “Radiolabeled peptides were injected through the tail vein at an average of 0.27 mCi per dose administration for biodistribution studies and an average of 0.7 mCi for imaging, achieving specific activities of 111.2-140.4 Ci/μmol (mean=122.1 Ci/μmol), and an average of 94.0% radiolabeling yield without a purification step after synthesis.” left out
A preliminary PET imaging study was also performed, in which two anesthetized animals were used for PET imaging studies starting at 10 min post administration of the radiolabeled peptide and statically imaged with a microPET-Focus scanner (Siemens Preclinical Solutions, Knoxville, Tenn.) for 20 min (see FIG. 9). […] Background levels of radioactivity in the blood and major organs and tissues were low, except for the kidneys.

Non-standard residues stand in square brackets, D forms with d. Residues, ends and D or L forms follow the SMILES beside them. *: point of attachment. NOTA = O=C(O)CN1CCN(CC(=O)O)CCN(CC(=O)*)CC1

T1 sequence (Q01727 whole entry): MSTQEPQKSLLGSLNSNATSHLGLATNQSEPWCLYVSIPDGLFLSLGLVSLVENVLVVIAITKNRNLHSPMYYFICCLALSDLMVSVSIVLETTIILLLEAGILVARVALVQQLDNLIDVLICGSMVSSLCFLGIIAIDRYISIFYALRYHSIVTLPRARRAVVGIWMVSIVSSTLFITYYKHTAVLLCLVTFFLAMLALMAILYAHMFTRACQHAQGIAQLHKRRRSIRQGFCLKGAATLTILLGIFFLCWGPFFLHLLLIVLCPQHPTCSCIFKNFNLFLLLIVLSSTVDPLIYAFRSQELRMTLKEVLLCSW

One may read the IC50 as the concentration needed to halve the response being measured. As to “CBTE2A-ReCCMSH [CBTE2A conjugated ReCCMSH peptide, the optimal peptide construct for Cu-64]”, in data set [1], the half-inhibitory concentration (IC50) is 5.4 nM.

Usually tissue uptake stands for the share of the injected amount in each gram of the tissue. Turning to `CC(C)[C@H](NC(=O)[C@@H]1CCCN1C(=O)[C@H](CCCNC(=N)N)NC(=O)[C@H](CS)NC(=O)[C@H](Cc1c[nH]c2ccccc12)NC(=O)[C@H](CCCNC(=N)N)NC(=O)[C@@H](Cc1ccccc1)NC(=O)[C@H](Cc1c[nH]cn1)NC(=O)[C@H](CCC(=O)O)NC(=O)[C@H](CS)NC(=O)[C@H](CS)NC(=O)CNC(=O)CNC(=O)CNC(=O)CN1CCN(CC(=O)O)CCN(CC(=O)O)CC1)C(N)=O` [^62Cu-NOTA-2-GGG-Arg11, metal not drawn] ({NOTA}-GGGCCEH[dF]RWCRPV-NH2), the tissue uptake at 40 min in data set [2] amounted to 9.43 ± 2.69 %ID/g. In addition, in data set [3] (20 min post injection, 20 μg non-labeled NDP-MSH co-injected), the “Tumor uptake in the blocked mice relative to radiolabeled peptide alone” value was 0.55 % of tumor uptake in the mice receiving the radiolabeled peptide alone. In addition, the Tumor uptake in data set [3] (20 min post injection) came to 4.65 ± 0.48 %ID/g; in data set [3] (40 min post injection), 9.43±2.69 % ID/g. For the same compound, the “Clearance and route of excretion” value in data set [3] (biodistribution at 10, 20 and 40 min) is “clearance from the blood and non-target tissues except for the kidneys, which was the primary route of excretion”. Moreover, the “Maximum cell uptake of the radiolabeled peptide” value in data set [4] came to 10%. In data set [5], the PET tumor visualization entry is “tumor is clearly visualized”.

The values are drawn from US20110280770A1, “Nanogenerator” (priority 2010, published 2011).
